# Measurements reported in patent publication US20220324835A1 (Nurix Therapeutics, Inc., priority 2018, published 2022).
# How the values were obtained:
# [1] = biological target: T1, Cbl-b (Homo sapiens, UniProt Q13191); experiment: Cbl-b inhibition assay (Cbl-b activity assay, FRET, Biological Example 1; 100 mM NaCl, 60 nM Src kinase); format: biochemical; settings: upper bound stated in text lists; read-out: IC50 values in the Cbl-b inhibition assay of Biological Example 1
# Summary of the method: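 Binding-based Cbl-b activity assay. Src-phosphorylated, N-terminally biotin-Avi-tagged Cbl-b recruits labelled UbcH5B-Ub, and proximity to streptavidin-terbium yields FRET.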
# [2] = system: T-cell; experiment: IL-2 secretion from T-cells co-stimulated with anti-CD3 and anti-CD28 antibody (Biological Example 2); format: cell-based, human; settings: Homo sapiens, T-cell, primary human total T-cells, baseline = anti-CD3/anti-CD28 stimulated cells without inhibitor, read-out: IL-2 secretion, Anti-CD3/Anti-CD28 stimulation, fold change over baseline; for fold induction at 0.3 µM: 0.3 μM compound; for fold induction at 1 µM: 1 μM compound; for fold induction at 4 µM: 4 μM compound
# Summary of the method: (§1)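 Values are fold-change over baseline: readings (IL-2 release, CD25 staining) from inhibitor-treated T-cells divided against untreated cells […]. No detailed procedure stated.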
# [3] = system: T-cell; experiment: CD25 cell surface staining on T-cells co-stimulated with anti-CD3 and anti-CD28 antibody (Biological Example 2); format: cell-based, human; settings: Homo sapiens, T-cell, primary human total T-cells, baseline = anti-CD3/anti-CD28 stimulated cells without inhibitor, read-out: CD25 staining, Anti-CD3/Anti-CD28 stimulation, fold change over baseline; for fold induction at 0.3 µM: 0.3 μM compound; for fold induction at 1 µM: 1 μM compound; for fold induction at 4 µM: 4 μM compound
# Summary of the method: as §1
# [4] = biological target: T1, Cbl-b; experiment: Cbl-b activity assay (Cbl-b inhibition assay), TR-FRET of Cbl-b interaction with UbcH5B-Ub; format: biochemical; settings: assay buffer with 100 mM NaCl, 60 nM Src kinase; read-out: Cbl-b activity IC50
# Summary of the method: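 Compound-treated Cbl-b was incubated 1.5 h with Src kinase (60 nM final; 30 nM for asterisked values, which also used 50 mM instead of 100 mM NaCl), 1 mM ATP and 5 mM MgCl2. Binding to fluorescent Ub-loaded UbcH5B (C85K mutant) was then read by TR-FRET after 1 h more.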
# [5] = biological target: Cbl-b (residues 36-427) (Homo sapiens, UniProt Q13191); experiment: Cbl-b binding assay (SPR, Biacore T200); settings: 20° C., 1:1 binding model
# Sequence of Cbl-b (residues 36-427) (Q13191 36-427): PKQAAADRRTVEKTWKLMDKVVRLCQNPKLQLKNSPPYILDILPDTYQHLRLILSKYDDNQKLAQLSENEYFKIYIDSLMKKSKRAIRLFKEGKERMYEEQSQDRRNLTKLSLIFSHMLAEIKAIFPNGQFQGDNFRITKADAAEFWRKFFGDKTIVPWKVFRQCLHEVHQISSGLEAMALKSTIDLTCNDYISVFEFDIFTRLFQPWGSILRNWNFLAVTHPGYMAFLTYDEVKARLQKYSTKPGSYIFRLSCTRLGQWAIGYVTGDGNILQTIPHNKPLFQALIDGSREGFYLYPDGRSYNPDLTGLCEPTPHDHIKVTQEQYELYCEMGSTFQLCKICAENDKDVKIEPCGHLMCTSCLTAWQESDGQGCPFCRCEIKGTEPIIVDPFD
# Summary of the method: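 NeutrAvidin capture chip, 20° C; 50 s injections at 50 μl/min, 90-180 s dissociation; 0.3 M NaCl regeneration. Asterisked column: 50 mM NaCl buffer and 30 nM Src kinase in place of 100 mM NaCl and 60 nM Src kinase. 1:1 fit.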
# [6] = system: T-cell; experiment: IL-2 secretion from T-cells stimulated with anti-CD3 antibody alone (Biological Example 2); format: cell-based; settings: primary human total T-cells, read-out: IL-2 secretion, Anti-CD3 stimulation, fold change over baseline; for fold induction at 1 µM: 1 μM compound; for fold induction at 8 µM: 8 μM compound
# [7] = system: T-cell; experiment: CD25 cell surface staining on T-cells stimulated with anti-CD3 antibody alone (Biological Example 2); format: cell-based; settings: primary human total T-cells, baseline = anti-CD3/anti-CD28 stimulated cells without inhibitor, read-out: CD25 staining, Anti-CD3 stimulation, fold change over baseline; for fold induction at 1 µM: 1 μM compound; for fold induction at 8 µM: 8 μM compound
# T1 sequence (Q13191 36-427): as above
SMILES,IC50 [1],fold induction at 0.3 µM [2],fold induction at 1 µM [2],fold induction at 4 µM [2],fold induction at 0.3 µM [3],fold induction at 1 µM [3],fold induction at 4 µM [3],IC50 [4],Kd [5],fold induction at 1 µM [6],fold induction at 8 µM [6],fold induction at 1 µM [7],fold induction at 8 µM [7]
"Cc1c[nH]nc1C[C@@H](C)c1cccc(N2Cc3c(cc(C(=O)N4CCC(O)C4)cc3C(F)(F)F)C2=O)c1 (stereo in doubt) [Compound 463, 6-((S)-3-hydroxypyrrolidine-1-carbonyl)-2-(3-((R)-1-(4-methyl-1H-pyrazol-3-yl)propan-2-yl)phenyl)-4-(trifluoromethyl)isoindolin-1-one]",≤ 0.1 µM,1.01 to 2.5,2.51 to 5,> 7.5,1.01 to 1.3,1.01 to 1.3,1.31 to 1.5,< 0.1 µM,< 0.1 µM,0.101 to 0.15,> 0.201,0.801 to 1,> 1
"C[C@H](Cc1nncn1C)c1cccc(N2Cc3c(cc(C4CC4)nc3C3CC3)C2=O)c1 [Compound 370, 4,6-dicyclopropyl-2-{3-[(2R)-1-(4-methyl-1,2,4-triazol-3-yl)propan-2-yl]phenyl}-3H-pyrrolo[3,4-c]pyridin-1-one]",≤ 0.3 µM,1.01 to 2.5,1.01 to 2.5,5 to 7.5,1.01 to 1.3,1.01 to 1.3,> 1.76,0.1 to 0.3 µM,0.1 to 0.3 µM,0.051 to 0.1,> 0.201,0.601 to 0.8,0.801 to 1
"C[C@H](Cc1nncn1C)c1cccc(N2Cc3c(cc([C@@H](C)N4CC[C@H](F)C4)cc3C(F)(F)F)C2=O)c1 [Compound 403, 6-((R)-1-((S)-3-fluoropyrrolidin-1-yl)ethyl)-2-(3-((R)-1-(4-methyl-4H-1,2,4-triazol-3-yl)propan-2-yl)phenyl)-4-(trifluoromethyl)isoindolin-1-one]",≤ 0.1 µM,5 to 7.5,> 7.5,> 7.5,1.01 to 1.3,1.01 to 1.3,1.31 to 1.5,< 0.1 µM,< 0.1 µM,0.151 to 0.2,> 0.201,> 1,> 1
"C[C@H](Cc1nncn1C)c1cccc(N2Cc3c(cc(N(C)[C@H]4CCNC4)cc3C(F)(F)F)C2=O)c1 [Compound 380, 6-(methyl((S)-pyrrolidin-3-yl)amino)-2-(3-((R)-1-(4-methyl-4H-1,2,4-triazol-3-yl)propan-2-yl)phenyl)-4-(trifluoromethyl)isoindolin-1-one]",≤ 0.1 µM,2.51 to 5,2.51 to 5,> 7.5,1.31 to 1.5,1.31 to 1.5,1.51 to 1.75,< 0.1 µM,< 0.1 µM,0.151 to 0.2,> 0.201,0.801 to 1,> 1
"CC(c1cc2c(c(C(F)(F)F)c1)CN(c1cccc([C@H](C)Cc3nncn3C)c1)C2=O)N1CC[C@H](O)C1 (stereo partly drawn) [Compound 416, 6-(1-((S)-3-hydroxypyrrolidin-1-yl)ethyl)-2-(3-((R)-1-(4-methyl-4H-1,2,4-triazol-3-yl)propan-2-yl)phenyl)-4-(trifluoromethyl)isoindolin-1-one]",≤ 0.1 µM,2.51 to 5,> 7.5,> 7.5,1.31 to 1.5,1.31 to 1.5,1.51 to 1.75,< 0.1 µM,< 0.1 µM,0.151 to 0.2,> 0.201,> 1,> 1
"C[C@H](Cc1nncn1C)c1cccc(N2Cc3c(cc(C(C)(C)O)cc3C(F)(F)F)C2=O)c1 [Compound 374, (R)-6-(2-hydroxypropan-2-yl)-2-(3-(1-(4-methyl-4H-1,2,4-triazol-3-yl)propan-2-yl)phenyl)-4-(trifluoromethyl)isoindolin-1-one]",≤ 0.1 µM,2.51 to 5,5 to 7.5,> 7.5,1.01 to 1.3,1.31 to 1.5,1.31 to 1.5,< 0.1 µM,0.1 to 0.3 µM,0.151 to 0.2,> 0.201,0.801 to 1,> 1
"Cc1c[nH]nc1-c1cc2c(c(C(F)(F)F)c1)CN(c1cccc([C@H](C)Cc3nncn3C)c1)C2=O [Compound 377, 6-(4-methyl-1H-pyrazol-3-yl)-2-{3-[(2R)-1-(4-methyl-4H-1,2,4-triazol-3-yl)propan-2-yl]phenyl}-4-(trifluoromethyl)-2,3-dihydro-1H-isoindol-1-one]",≤ 0.1 µM,1.01 to 2.5,5 to 7.5,> 7.5,1.31 to 1.5,1.51 to 1.75,> 1.76,< 0.1 µM,< 0.1 µM,> 0.201,> 0.201,0.601 to 0.8,0.801 to 1
"Cc1conc1C[C@@H](C)c1cccc(N2Cc3c(cc(C(=O)N4CC[C@H](O)C4)cc3C(F)(F)F)C2=O)c1 [Compound 407, 6-((S)-3-Hydroxypyrrolidine-1-carbonyl)-2-(3-((R)-1-(4-methylisoxazol-3-yl)propan-2-yl)phenyl)-4-(trifluoromethyl)isoindolin-1-one]",≤ 0.1 µM,2.51 to 5,5 to 7.5,> 7.5,1.01 to 1.3,1.01 to 1.3,1.01 to 1.3,< 0.1 µM,< 0.1 µM,0.101 to 0.15,> 0.201,> 1,> 1
"Cn1cnnc1C(F)(F)[C@](C)(F)c1cccc(N2Cc3c(cc(CN4CC(F)C4)cc3C(F)(F)F)C2=O)c1 [Compound 451, (R)-6-((3-fluoroazetidin-1-yl)methyl)-2-(3-(1,1,2-trifluoro-1-(4-methyl-4H-1,2,4-triazol-3-yl)propan-2-yl)phenyl)-4-(trifluoromethyl)isoindolin-1-one]",≤ 0.3 µM,1.01 to 2.5,5 to 7.5,> 7.5,1.01 to 1.3,1.01 to 1.3,1.31 to 1.5,0.1 to 0.3 µM,< 0.1 µM,0.101 to 0.15,> 0.201,0.801 to 1,> 1
"C[C@H](Cc1nncn1C)c1cccc(N2Cc3c(cc(CN4C[C@@H](O)[C@H](F)C4)cc3C(F)(F)F)C2=O)c1 [Compound 395, 6-(((3R,4R)-3-fluoro-4-hydroxypyrrolidin-1-yl)methyl)-2-(3-((R)-1-(4-methyl-4H-1,2,4-triazol-3-yl)propan-2-yl)phenyl)-4-(trifluoromethyl)isoindolin-1-one]",≤ 0.1 µM,2.51 to 5,> 7.5,> 7.5,1.01 to 1.3,1.31 to 1.5,1.31 to 1.5,< 0.1 µM,< 0.1 µM,> 0.201,> 0.201,> 1,> 1
